“Also recorded” adds a separate entry of the source. Like-named read-outs stand apart in the source and are kept apart here. Square brackets hold non-standard residues; d marks the D form. Ends that are not written are not given here. * marks the point of attachment. Biotin = O=C1N[C@H]2[C@H](CS[C@H]2CCCCC(=O)*)N1; code O = not defined here; Ahx = NCCCCCC(=O)O; For = O=C*
System: antibodies in TETAQUIN® (anti-TTd antibodies)
Format: binding, human
Conditions: for binding to TETAQUIN (screen of overlapping 22-mer TTx peptides): FIG. 3 (α-chain), FIG. 4 (β-chain)
[1] = Table 2, length variants of peptide β-32, section 'With linker', […] diluted 800x, OD at 415 nm
[2] = Table 2, length variants of peptide β-32, section 'Without linker' (sequence listed without Z O), […]
[3] = Table 4, antibody source not given
[4] = Table 3, further length variants and Lys(formyl) variants, […], neg. control OD 0.30

Row | Substance | OD [1] | OD [2] | other results
1 | Q Y I K A N S K Z O (QYIKANSK-{Ahx-code O}; reading uncertain) [P36] | 0.2 | 0.2 | –
2 | J Z Z SKFIGITELKKLESKINKVF (SKFIGITELKKLESKINKVF) [J = Biotin (N-terminal), Z = Ahx] | – | – | ELISA OD, effect of longer spacer and C- versus N-terminal biotinylation [3]: 0.47
3 | F I G I T E L J K L E S K I Z O [0925-64, J = Lys(formyl)] | – | – | OD [4]: 1.70
4 | F I G I T E L K K L E S K I N Z Z O (FIGITELKKLESKIN[Ahx][Ahx]K(Biotin)) | – | – | ELISA OD, effect of longer spacer and C- versus N-terminal biotinylation [3]: 0.64
5 | G I T E L K K L Z O (GITELKKL-{Ahx-code O}; reading uncertain) [P31] | 0.2 | 0.2 | –
6 | F I G I T E L K K L E S K I N K Z Z O (FIGITELKKLESKINK[Ahx][Ahx]K(Biotin)) | – | – | ELISA OD, effect of longer spacer and C- versus N-terminal biotinylation [3]: 0.65
7 | Q Y I K A N S K F I G I T E L K Z O (QYIKANSKFIGITELK-{Ahx-code O}; reading uncertain) [P10] | 0.25 | 0.25 | –
8 | I K A N S K F I G I T E Z O (IKANSKFIGITE-{Ahx-code O}; reading uncertain) [P20] | 0.2 | 0.2 | –
9 | Q Y I K A N S K F I Z O (QYIKANSKFI-{Ahx-code O}; reading uncertain) [P28] | 0.2 | 0.2 | –
10 | E L K K L E S K I N K V F S Z O [0925-62] | – | – | OD [4]: 0.35
11 | FIGITELKKLESKINKVFST Z O [0925-52] | – | – | OD [4]: 1.85
12 | G I T E L K K L E S Z O (GITELKKLES-{Ahx-code O}; reading uncertain) [P23] | 0.25 | 0.25 | –
13 | F I G I T E L K K L Z O (FIGITELKKL-{Ahx-code O}; reading uncertain) [P24] | 0.35 | 0.35 | –
14 | A N S K F I G I T E L K K L Z O (ANSKFIGITELKKL-{Ahx-code O}; reading uncertain) [P13] | 0.6 | 0.6 | –
15 | IGALETTGVVLLLEYIPEITLPZO [β18] | – | – | binding to TETAQUIN (screen of overlapping 22-mer TTx peptides): good binding; also recorded: antibodies present
16 | J Z Z F I G I T E L K K L E S K I N K V F | – | – | ELISA OD, effect of longer spacer and C- versus N-terminal biotinylation [3]: 0.22
17 | I K A N S K F I G I T E L K K L E S Z O (IKANSKFIGITELKKLES-{Ahx-code O}; reading uncertain) [P5] | 0.9 | 0.9 | –
18 | TSYLSITFLRDFWGNPLRYDTEZO [β55] | – | – | binding to TETAQUIN (screen of overlapping 22-mer TTx peptides): good binding; also recorded: antibodies present
19 | J Z SKFIGITELKKLESKINKVF | – | – | ELISA OD, effect of longer spacer and C- versus N-terminal biotinylation [3]: 0.28
20 | G I T E L K K L E S K I N K Z O (GITELKKLESKINK[Ahx]K(Biotin)) [0925-59] | – | – | OD [4]: 0.75
21 | ELGKKFNIKTRLSYFSMNHDPVZO [α31] | – | – | binding to TETAQUIN (screen of overlapping 22-mer TTx peptides): good binding; also recorded: antibodies present

Row | Substance | OD [1] | OD [2] | other results
22 | L K K L E S K I Z O (LKKLESKI-{Ahx-code O}; reading uncertain) [P29] | 0.2 | 0.2 | –
23 | F I G I T E L K K L E S Z O (FIGITELKKLES-{Ahx-code O}; reading uncertain) [P17] | 0.45 | 0.45 | –
24 | F I G I T E L K K L E S K I N K V F Z Z O (FIGITELKKLESKINKVF[Ahx][Ahx]K; not fully specified (residue 21); also: O: biotin modification, exact residue form not clear) | – | – | ELISA OD, effect of longer spacer and C- versus N-terminal biotinylation [3]: 1.16
25 | IKANSKFIGITELKKLESKI Z O (IKANSKFIGITELKKLESKI-{Ahx-code O}; reading uncertain) [P2] | 1.2 | 1.2 | –
26 | I K A N S K F I G I Z O (IKANSKFIGI-{Ahx-code O}; reading uncertain) [P27] | 0.2 | 0.2 | –
27 | KFNAYLANKWVFITITNDRLSSZO [β48] | – | – | binding to TETAQUIN (screen of overlapping 22-mer TTx peptides): good binding; also recorded: antibodies present
28 | F I G I T E L K K L E S K I N K V Z O (FIGITELKKLESKINKV[Ahx]K; not fully specified (residue 19); also: O: biotin modification, exact residue form not clear) [0925-55] | – | – | OD [4]: 2.00
29 | F I G I T E L K J L E S K I Z O [0925-65, J = Lys(formyl)] | – | – | OD [4]: 1.50
30 | S K F I G I T E L K Z O (SKFIGITELK-{Ahx-code O}; reading uncertain) [P25] | 0.2 | 0.2 | –
31 | L K K L E S K I N K V F S T Z O (LKKLESKINKVFST[Ahx]K(Biotin)) [0925-63] | – | – | OD [4]: 0.40
32 | F I G I T E L K J L E S J I Z O [0925-69, J = Lys(formyl)] | – | – | OD [4]: 1.65
33 | F I G I T E L K K L E S K I N K V Z Z O (FIGITELKKLESKINKV[Ahx][Ahx]K(Biotin)) | – | – | ELISA OD, effect of longer spacer and C- versus N-terminal biotinylation [3]: 0.68
34 | A N S K F I G I T E L K K L E S Z O (ANSKFIGITELKKLES-{Ahx-code O}; reading uncertain) [P8] | 0.85 | 0.85 | –
35 | S K F I G I T E L K K L E S Z O (SKFIGITELKKLES-{Ahx-code O}; reading uncertain) [P12] | 0.8 | 0.8 | –
36 | F I G I T E L J J L E S K I Z O [0925-67, J = Lys(formyl)] | – | – | OD [4]: 1.15
37 | A N S K F I G I Z O (ANSKFIGI-{Ahx-code O}; reading uncertain) [P34] | 0.2 | 0.2 | –
38 | A N S K F I G I T E L K Z O (ANSKFIGITELK-{Ahx-code O}; reading uncertain) [P19] | 0.2 | 0.2 | –
39 | J Z F I G I T E L K K L E S K I N K V F | – | – | ELISA OD, effect of longer spacer and C- versus N-terminal biotinylation [3]: 0.17
40 | F I G I T E L K K L E S K I N K Z O (FIGITELKKLESKINK[Ahx]K(Biotin)) [0925-56] | – | – | OD [4]: 1.55
41 | T E L K K L E S Z O (TELKKLES-{Ahx-code O}; reading uncertain) [P30] | 0.2 | 0.2 | –
42 | I G I T E L K K L E S K I N Z O (IGITELKKLESKIN[Ahx]K(Biotin)) [0925-58] | – | – | OD [4]: 1.45

Row | Substance | OD [1] | OD [2] | other results
43 | Q Y I K A N S K F I G I Z O (QYIKANSKFIGI-{Ahx-code O}; reading uncertain) [P21] | 0.2 | 0.2 | –
44 | Q Y I K A N S K F I G I T E L K K L Z O (QYIKANSKFIGITELKKL-{Ahx-code O}; reading uncertain) [P6] | 0.75 | 0.75 | –
45 | G I T E L K K L E S K I Z O (GITELKKLESKI-{Ahx-code O}; reading uncertain) [P16] | 0.45 | 0.45 | –
46 | F I G I T E L K K L E S K I N Z O (FIGITELKKLESKIN[Ahx]K(Biotin)) [0925-57] | – | – | OD [4]: 1.65
47 | F I G I T E L J J L E S J I Z O [0925-70, J = Lys(formyl)] | – | – | OD [4]: 1.00
48 | F I G I T E L K K L E S K I Z O (FIGITELKKLESKI-{Ahx-code O}; reading uncertain) [P11] | 1.0 | 1.0 | –
49 | AMDIEYNDMFNNFTVSFWLRVPZO [β41] | – | – | binding to TETAQUIN (screen of overlapping 22-mer TTx peptides): good binding; also recorded: antibodies present
50 | S K F I G I T E L K K L Z O (SKFIGITELKKL-{Ahx-code O}; reading uncertain) [P18] | 0.45 | 0.45 | –
51 | F I G I T E L K K L E S J I Z O (FIGITELKKLESK(For)I[Ahx]K; not fully specified (residue 16)) [0925-66, J = Lys(formyl)] | – | – | OD [4]: 2.10
52 | KALNPKEIEKLYTSYLSITFLRZO [β54] | – | – | binding to TETAQUIN (screen of overlapping 22-mer TTx peptides): good binding; also recorded: antibodies present
53 | I K A N S K F I G I T E L K K L Z O (IKANSKFIGITELKKL-{Ahx-code O}; reading uncertain) [P9] | 0.6 | 0.6 | –
54 | A N S K F I G I T E L K K L E S K I Z O (ANSKFIGITELKKLESKI-{Ahx-code O}; reading uncertain) [P4] | 1.05 | 1.05 | –
55 | S K F I G I T E Z O (SKFIGITE-{Ahx-code O}; reading uncertain) [P33] | 0.2 | 0.2 | –
56 | F I G I T E L K K L E S K I N K V F S Z O [0925-53] | – | – | OD [4]: 1.90
57 | A N S K F I G I T E Z O (ANSKFIGITE-{Ahx-code O}; reading uncertain) [P26] | 0.2 | 0.2 | –
58 | SLTDLGGELCIKIKNEDLTFIAZO [β1] | – | – | ELISA OD, effect of longer spacer and C- versus N-terminal biotinylation: 0.12
59 | F I G I T E L K Z O (FIGITELK-{Ahx-code O}; reading uncertain) [P32] | 0.2 | 0.2 | –
60 | I K A N S K F I G I T E L K Z O (IKANSKFIGITELK-{Ahx-code O}; reading uncertain) [P14] | 0.2 | 0.2 | –
61 | S K F I G I T E L K K L E S K I Z O (SKFIGITELKKLESKI-{Ahx-code O}; reading uncertain) [P7] | 1.15 | 1.15 | –
62 | T E L K K L E S K I N K V F Z O (TELKKLESKINKVF[Ahx]K(Biotin)) [0925-61] | – | – | OD [4]: 0.35
